The source of these data is patent US7186702B2, “Method of treating leishmaniasis using methyl-beta-cyclodextrin” (priority 2002, dated 2007).

The test system of test [1] is Leishmania donovani strain AG83. Kind of test: Intracellular amastigote count in infected macrophages by Giemsa staining. The format is cell-based. The settings on record: J774A.1 macrophages. As for the experimental part: (§1) Cells and cell culture. A murine macrophage cell line J774A.1 (American Type Culture Collection, Rockville, Md.) was used. The cells were maintained at 37° C. in RPMI-1640 medium containing 10% heat inactivated fetal calf serum (FCS)(Biological Industries, Israel) in a CO2 incubator (5% CO2) as described previously^10. The macrophages were seeded onto tissue culture plates (60 mm) at a density of 1×10^5 cells/plate and grown for 48 hrs before use.
(§2) Parasite culture. Leishmania donovani strain AG83 (MHOM/IN/1983/AG83) promastigotes were maintained at 24° C. in modified M-199 medium (Gibco/BRL) supplemented with 100 units/ml penicillin (Sigma, U.S.A.), 100 µg/ml streptomycin (Sigma, U.S.A.), and 10% heat inactivated FCS.
(§3) Cholesterol depletion and estimation. J774A.1 cells grown on culture dishes were depleted of cholesterol by incubating for 30 min with 5 or 10 mM methyl-β-cyclodextrin (Sigma) at 37° C. in serum free medium^13,23. Total cellular cholesterol was estimated using Amplex Red cholesterol assay kit^27 (Molecular Probes). Cholesterol values were normalized to protein levels estimated using BCA assay reagent kit^28 (Pierce).
Infecting macrophages with Leishmania. Promastigotes were added onto the macrophage monolayers (both control and cholesterol-depleted) at a parasite: macrophage ratio of 10:1. The parasite-macrophage interaction was allowed to progress for 15, 30 and 90 min at 37° C. At the end of incubation, monolayers were washed with phosphate buffered saline (PBS) to remove free parasites and placed on ice to loosen adherent cells from the plates. The monolayers were gently scraped to resuspend the macrophage-parasite complexes and the resulting cell suspension was analyzed either for radiolabel incorporation or macrophage-associated fluorescence. The percentage of infected macrophages was >95% after 3 hr with 5–8 amastigotes per macrophage as determined by Giemsa staining.

Test [2] has the same test system. The test is described as follows: Ligand binding assay of [3H]thymidine labeled promastigotes to macrophages. The format is cell-based. As to conditions: 10 mM, J774A.1 macrophages, parasite:macrophage 10:1, assayed till 90 min. As for the experimental part: as §1, §2
(§4) Cholesterol depletion and estimation. […]
(§5) Infecting macrophages with Leishmania. […] The monolayers were gently scraped to resuspend the macrophage-parasite complexes and the resulting cell suspension was analyzed either for radiolabel incorporation or macrophage-associated fluorescence. The percentage of infected macrophages was >95% after 3 hr with 5–8 amastigotes per macrophage as determined by Giemsa staining.
(§6) Labeling L. donovani AG83 promastigotes with tritium or FITC for binding studies. […] The fluorescence from the FITC-labeled parasites associated with the macrophages was analyzed with a Beckman Coulter ELITE ESP flow cytometer (Miami, Fla.) using EXPO 32 software.

The test system is the same in test [3]. Kind of test: Flow cytometric analysis of binding of FITC-labeled promastigotes to macrophages. The format is cell-based. The settings on record: 10 mM, J774A.1 macrophages, parasite:macrophage 10:1, especially after 90 min. As for the experimental part: as §1, §2, §4, §5, §6
Background: In flow cytometry, cells or beads pass a laser one at a time.

The subject of a further test is J774A.1 macrophages. The test is described as follows: Cholesterol depletion and estimation (Amplex Red cholesterol assay kit). The class given is cell-based, murine. The protocol:
as §1, §3

methyl-β-cyclodextrin: the “number of amastigotes present compared to control cells” value in test [1] (5 mM, multiplicity of infection 10:1, 3 hr) was “concomitant reduction in the number of amastigotes”. Also, in test [1] (10 mM), the “amastigotes present compared to control cells” value came to 50%. Moreover, the “reduction in the number of intracellular amastigotes” value in test [1] (10 mM, multiplicity of infection 10:1, 3 hr) is recorded as roughly 50%. The “reduction in macrophage-parasite interaction (attachment) compared to control cells” value in test [2] is on record as roughly 45%. The “fluorescence associated with cholesterol-depleted macrophages compared to control (FIG. 3)” value in test [3] is “pronounced reduction in fluorescence”. Moreover, the “reduction of cellular cholesterol” value in the test with J774A.1 macrophages (10 mM, 30 min incubation, total cellular cholesterol) is given as roughly 40%. In addition, in the test with J774A.1 macrophages (5 or 10 mM), the “total cellular cholesterol upon treatment (FIG. 1)” value is on record as “concentration-dependent reduction”.
